{"source": "patent US10111890B2", "about": "“9-aminomethyl minocycline compounds and uses thereof” (Paratek Pharmaceuticals, Inc., priority 2016, dated 2018)", "key": {"[1]": {"test_system": "ABSSSI known or suspected to be due to Gram-positive pathogens", "test": "Phase 3 oral omadacycline vs oral linezolid in ABSSSI: Investigator's Assessment of Clinical Response at PTE", "type": "in vivo, human", "details": "for Overall Clinical Success at PTE, %: micro-mITT, % of N1; for Difference (95% CI) in Overall Clinical Success rate at PTE: omadacycline minus linezolid"}, "[2]": {"details": "human, in vivo"}, "[3]": {"test": "Prior Phase 1 studies: bioavailability / bioequivalence of oral tablet formulation", "set-up": "species or system human", "details": "in vivo; for bioavailability: human"}, "[4]": {"details": "Cellulitis/erysipelas, actual type, mITT"}, "[5]": {"details": "Cellulitis/erysipelas, as randomized, mITT"}, "[6]": {"details": "Major Abscess, actual type, mITT"}, "[7]": {"details": "Major Abscess, as randomized, mITT"}, "[8]": {"details": "Wound Infection, actual type, mITT"}, "[9]": {"details": "Wound Infection, as randomized, mITT"}}, "note": "Where two headings read alike, the source gives them in different places."}
{"molecule": "CN(C)c1cc(CNCC(C)(C)C)c(O)c2c1C[C@H]1C[C@H]3[C@H](N(C)C)C(O)=C(C(N)=O)C(=O)[C@@]3(O)C(O)=C1C2=O", "note": "[Omadacycline, 9-[(2,2-dimethyl-propylamino)-methyl]-minocycline]", "values": [{"measurement": "Overall clinical response at PTE: Clinical Success", "setting": "[1]; Cellulitis/erysipelas, actual type of infection, investigator assessment, mITT", "value": "76 (88.4) n (%)"}, {"measurement": "Overall clinical response at PTE: Clinical Failure", "setting": "[1]; [4]", "value": "2 (2.3) n (%)"}, {"measurement": "Overall clinical response at PTE: Clinical Failure or Indeterminate", "setting": "[1]; [4]", "value": "10 (11.6) n (%)"}, {"measurement": "Overall clinical response at PTE: Indeterminate", "setting": "[1]; [4]", "value": "8 (9.3) n (%)"}, {"measurement": "Overall clinical response at PTE: Clinical Failure", "setting": "[1]; [5]", "value": "2 (2.4) n (%)"}, {"measurement": "Overall clinical response at PTE: Clinical Failure or Indeterminate", "setting": "[1]; [5]", "value": "10 (12.2) n (%)"}, {"measurement": "Overall clinical response at PTE: Indeterminate", "setting": "[1]; [5]", "value": "8 (9.8) n (%)"}, {"measurement": "Overall clinical response at PTE: Clinical Success", "setting": "[1]; Cellulitis/erysipelas, type of infection as randomized, investigator assessment, mITT", "value": "72 (87.8) n (%)"}, {"measurement": "Overall clinical response at PTE: Clinical Success", "setting": "[1]; Major Abscess, actual type of infection, investigator assessment, mITT", "value": "54 (84.4) n (%)"}, {"measurement": "Overall clinical response at PTE: Clinical Failure", "setting": "[1]; [6]", "value": "2 (3.1) n (%)"}, {"measurement": "Overall clinical response at PTE: Clinical Failure or Indeterminate", "setting": "[1]; [6]", "value": "10 (15.6) n (%)"}, {"measurement": "Overall clinical response at PTE: Indeterminate", "setting": "[1]; [6]", "value": "8 (12.5) n (%)"}, {"measurement": "Overall clinical response at PTE: Clinical Failure", "setting": "[1]; [7]", "value": "2 (3.1) n (%)"}, {"measurement": "Overall clinical response at PTE: Clinical Failure or Indeterminate", "setting": "[1]; [7]", "value": "10 (15.6) n (%)"}, {"measurement": "Overall clinical response at PTE: Indeterminate", "setting": "[1]; [7]", "value": "8 (12.5) n (%)"}, {"measurement": "Overall clinical response at PTE: Clinical Success", "setting": "[1]; Major Abscess, type of infection as randomized, investigator assessment, mITT", "value": "54 (84.4) n (%)"}, {"measurement": "Overall clinical response at PTE: Clinical Success", "setting": "[1]; Wound Infection, actual type of infection, investigator assessment, mITT", "value": "173 (82.4) n (%)"}, {"measurement": "Overall clinical response at PTE: Clinical Failure", "setting": "[1]; [8]", "value": "8 (3.8) n (%)"}, {"measurement": "Overall clinical response at PTE: Clinical Failure or Indeterminate", "setting": "[1]; [8]", "value": "37 (17.6) n (%)"}, {"measurement": "Overall clinical response at PTE: Indeterminate", "setting": "[1]; [8]", "value": "29 (13.8) n (%)"}, {"measurement": "Overall clinical response at PTE: Clinical Failure", "setting": "[1]; [9]", "value": "8 (3.7) n (%)"}, {"measurement": "Overall clinical response at PTE: Clinical Failure or Indeterminate", "setting": "[1]; [9]", "value": "37 (17.3) n (%)"}, {"measurement": "Overall clinical response at PTE: Indeterminate", "setting": "[1]; [9]", "value": "29 (13.6) n (%)"}, {"measurement": "Overall clinical response at PTE: Clinical Success", "setting": "[1]; Wound Infection, type of infection as randomized, investigator assessment, mITT", "value": "177 (82.7) n (%)"}, {"measurement": "Overall Clinical Success at PTE, %", "setting": "[1]; baseline pathogen Clostridium perfringens, investigator assessment", "value": "(80.0) %"}, {"measurement": "Overall Clinical Success at PTE, %", "setting": "[1]; baseline pathogen Enterobacter cloacae, investigator assessment", "value": "(80.0) %"}, {"measurement": "Overall Clinical Success at PTE, %", "setting": "[1]; baseline pathogen Enterococcus faecalis VSE, investigator assessment", "value": "(100.0) %"}, {"measurement": "Overall Clinical Success at PTE, %", "setting": "[1]; baseline pathogen Enterococcus faecalis, investigator assessment", "value": "(100.0) %"}, {"measurement": "Overall Clinical Success at PTE, %", "setting": "[1]; baseline pathogen Enterococcus faecium VSE, investigator assessment", "value": "(100.0) %"}, {"measurement": "Overall Clinical Success at PTE, %", "setting": "[1]; baseline pathogen Enterococcus faecium, investigator assessment", "value": "(100.0) %"}, {"measurement": "Overall Clinical Success at PTE, %", "setting": "[1]; baseline pathogen Escherichia coli, investigator assessment", "value": "(100.0) %"}, {"measurement": "Overall Clinical Success at PTE, %", "setting": "[1]; baseline pathogen Finegoldia magna, investigator assessment", "value": "(100.0) %"}, {"measurement": "Overall Clinical Success at PTE, %", "setting": "[1]; baseline pathogen Klebsiella pneumoniae, investigator assessment", "value": "(80.0) %"}, {"measurement": "Overall Clinical Success at PTE, %", "setting": "[1]; baseline pathogen MRSA, investigator assessment", "value": "(85.6) %"}, {"measurement": "Overall Clinical Success at PTE, %", "setting": "[1]; baseline pathogen MSSA, investigator assessment", "value": "(80.8) %"}, {"measurement": "Overall Clinical Success at PTE, %", "setting": "[1]; baseline pathogen Prevotella denticola, investigator assessment", "value": "(60.0) %"}, {"measurement": "Overall Clinical Success at PTE, %", "setting": "[1]; baseline pathogen Prevotella melaninogenica, investigator assessment", "value": "(100.0) %"}, {"measurement": "Overall Clinical Success at PTE, %", "setting": "[1]; baseline pathogen Staphylococcus aureus, investigator assessment", "value": "(82.7) %"}, {"measurement": "Overall Clinical Success at PTE, %", "setting": "[1]; baseline pathogen Staphylococcus lugdunensis, investigator assessment", "value": "(80.0) %"}, {"measurement": "Overall Clinical Success at PTE, %", "setting": "[1]; baseline pathogen Streptococcus agalactiae, investigator assessment", "value": "(50.0) %"}, {"measurement": "Overall Clinical Success at PTE, %", "setting": "[1]; baseline pathogen Streptococcus anginosus group, investigator assessment", "value": "(86.0) %"}, {"measurement": "Overall Clinical Success at PTE, %", "setting": "[1]; baseline pathogen Streptococcus anginosus, investigator assessment", "value": "(88.9) %"}, {"measurement": "Overall Clinical Success at PTE, %", "setting": "[1]; baseline pathogen Streptococcus constellatus, investigator assessment", "value": "(88.9) %"}, {"measurement": "Overall Clinical Success at PTE, %", "setting": "[1]; baseline pathogen Streptococcus intermedius, investigator assessment", "value": "(78.3) %"}, {"measurement": "Overall Clinical Success at PTE, %", "setting": "[1]; baseline pathogen Streptococcus mitis, investigator assessment", "value": "(100.0) %"}, {"measurement": "Overall Clinical Success at PTE, %", "setting": "[1]; baseline pathogen Streptococcus pyogenes, investigator assessment", "value": "(69.0) %"}, {"measurement": "Overall Clinical Success at PTE, %", "setting": "[1]; baseline pathogen Streptococcus viridans group, investigator assessment", "value": "(100.0) %"}, {"measurement": "Overall clinical response at PTE: Clinical Failure", "setting": "[1]; investigator assessment, CE-PTE", "value": "6 (2.1) n (%)"}, {"measurement": "Overall clinical response at PTE: Clinical Success", "setting": "[1]; investigator assessment, CE-PTE (N = 284 / N = 292)", "value": "278 (97.9) n (%)"}, {"measurement": "Overall clinical response at PTE: Clinical Failure", "setting": "[1]; investigator assessment, mITT", "value": "12 (3.3) n (%)"}, {"measurement": "Overall clinical response at PTE: Clinical Failure or Indeterminate", "setting": "[1]; investigator assessment, mITT", "value": "57 (15.8) n (%)"}, {"measurement": "Overall clinical response at PTE: Indeterminate", "setting": "[1]; investigator assessment, mITT", "value": "45 (12.5) n (%)"}, {"measurement": "Overall clinical response at PTE: Clinical Success", "setting": "[1]; investigator assessment, mITT (N = 360 per arm)", "value": "303 (84.2) n (%)"}, {"measurement": "Difference in Overall Clinical Success rate at PTE, omadacycline minus linezolid", "setting": "[1]; mITT", "value": 3.3, "unit": "%"}, {"measurement": "Difference (95% CI) in Overall Clinical Success rate at PTE", "setting": "[1]; [4]", "value": "−4.5 (−14.0, 4.7)"}, {"measurement": "Difference (95% CI) in Overall Clinical Success rate at PTE", "setting": "[1]; [5]", "value": "−5.1 (−14.9, 4.3)"}, {"measurement": "Difference (95% CI) in Overall Clinical Success rate at PTE", "setting": "[1]; [6]", "value": "5.3 (−8.4, 19.2)"}, {"measurement": "Difference (95% CI) in Overall Clinical Success rate at PTE", "setting": "[1]; [7]", "value": "5.3 (−8.4, 19.2)"}, {"measurement": "Difference (95% CI) in Overall Clinical Success rate at PTE", "setting": "[1]; [8]", "value": "5.7 (−2.0, 13.4)"}, {"measurement": "Difference (95% CI) in Overall Clinical Success rate at PTE", "setting": "[1]; [9]", "value": "6.1 (−1.6, 13.7)"}, {"measurement": "discontinuation due to TEAE, % of subjects", "setting": "[2]", "value": 1.9, "unit": "%"}, {"measurement": "serious TEAEs, % of subjects", "setting": "[2]", "value": 3.4, "unit": "%"}, {"measurement": "treatment-emergent adverse events (TEAEs), % of subjects", "setting": "[2]", "value": 48.3, "unit": "%"}, {"measurement": "bioavailability", "setting": "[3]", "value": 35, "unit": "%"}, {"measurement": "bioavailability", "setting": "[3]; phase 3 tablet formulation (tosylate salt), fasting conditions, read-out: absolute bioavailability", "value": 34.5, "unit": "%"}, {"measurement": "bioequivalence of oral and i.v. dose (based on serum AUC)", "setting": "[3]", "value": "bioequivalent"}]}
